The values that follow come from PMC9369442, “Synthetic Peucedanocoumarin IV Prevents α-Synuclein Neurotoxicity in an Animal Model of Parkinson’s Disease” (International Journal of Molecular Sciences, 2022).

Molecules are shown by their SMILES. Read-outs that look alike come from different tables or passages of the source.

On the set-up of data set [1]: method as in PMID 31689937. As to conditions: intraperitoneal administration in mice; cited from earlier work.
Data set [2] is described as follows: Dissolution in dosing vehicle. The data set is classed as physicochemical. The settings on record: DMSO:PEG400:saline ratio of 5:70:25. Here is the method: (§1) In vivo rat pharmacokinetic studies were performed for intravenous and oral administration of PCiv as previously reported. Sprague-Dawley rats (8 weeks old, 260–280 g) were purchased from Orient Bio Inc. (Seongnam, Korea). Rats were maintained with free access to food and water under a 12:12 h light/dark cycle for 1 week. For pharmacokinetic studies, under anesthetic conditions (20 mg/kg tiletamine/zolazepam [Zoletil; Vibrac Laboratories, Carros, France] administered intramuscularly), the femoral vein and artery were surgically cannulated using polyethylene tubing (PE50; Clay Adams, Parsippany, NJ, USA) in fasted rats. Then, PCiv was administered intravenously and orally at a dose of 10 mg/kg (n = 4–5). The drug was dissolved in a vehicle (DMSO:PEG400:saline at a ratio of 5:70:25). Blood samples (approximately 100 μL) were collected at predetermined time points (0, 1, 5 (intravenous administration only), 15, 30, 60, 120, 180, 240, 360, and 480 min) after drug administration. […] The PCiv level was determined using a CapcellpakTM C18 5 μm column (250 × 1.5 mm, Shiseido Fine Chemical Co., Tokyo, Japan), as previously described. […] The tissue concentration levels were calculated as the PCiv amount (ng) per gram of organ weight.

A short description of data set [3]: Rat tissue distribution 15 min after intravenous bolus. Type of data set: in vivo. The settings on record: rats; for Kp at 15 min: Sprague-Dawley, rat, brain. Here is the method: Figure 3 Pharmacokinetic analysis and tissue distribution of PCiv. (A) Pharmacokinetic analysis of blood PCiv levels at each indicated time point following intravenous or oral administration of PCiv (10 mg/kg) determined by ultra-performance liquid chromatography (n = 4 rats for oral and 5 rats for intravenous administration). (B) Quantification of PCiv levels in each indicated tissue (ng/g tissue weight) determined by ultra-performance liquid chromatography (n = 3 rats, tissues collected 15 min after intravenous PCiv administration (10 mg/kg). PCiv was dissolved in a vehicle (DMSO:PEG400:saline ratio of 5:70:25) for solubilization. The quantified data are expressed as means ± standard deviations.
as §1

For the compound `C/C=C(\C)C(=O)O[C@@H]1c2c(ccc3ccc(=O)oc23)OC(C)(C)[C@H]1OC(C)=O` (relative stereo) [PCiii, peucedanocoumarin III], the brain distribution entry in data set [1] is recorded as “demonstrated brain distribution”.

Regarding `C/C=C(\C)C(=O)O[C@H]1[C@H](OC(C)=O)c2c(ccc3ccc(=O)oc23)OC1(C)C` (relative stereo) [PCiv, trans-4′-acetyl-3′-tigloylkhellactone], the “dissolution in vehicle solution” value in data set [2] is given as “well-dissolved”. Moreover, the Kp at 15 min turned out to be 6.4 in data set [3] (15 min after intravenous 10 mg/kg, read-out: brain tissue-to-plasma concentration ratio) and 6.4 in data set [3] (intravenous, 10 mg/kg, read-out: distribution to target organ compared with the plasma concentration). Further, in data set [3] (15 min after intravenous 10 mg/kg), the “tissue-to-plasma concentration ratio, liver and kidneys” value is recorded as “low”.
